From patent publication US20240252502A1, “HDAC6 INHIBITORS FOR TREATMENT OF METABOLIC DISEASE AND HFPEF” (Tenaya Therapeutics, Inc., priority 2021, published 2024) come the findings set out here.

SMILES strings stand for the structures.

This assay has as its system HFD/L-NAME mice (HFpEF model). In words: HFD/L-NAME HFpEF mouse model, TYA-11018 versus Empagliflozin. It counts as in vivo. The conditions noted are these: 15 mg/kg TYA-11018 or 10 mg/kg Empagliflozin orally once daily for 9 weeks. As for the experimental part: After HFpEF phenotypes were established, mice received 15 mg/kg TYA-11018 or 10 mg/kg Empagliflozin, or vehicle orally once daily for 9 weeks. Health monitoring was performed weekly with body weights recorded. Glucose tolerance test was performed after 1st dose. Cardiac function was recorded by echocardiography after treatment for 9 weeks. End diastolic pressure (EDP) was measured by PV-Loop at terminal at 9 weeks after dosing.
Animals: Cohort of mice with established HFpEF phenotypes and age/sex matched wild type controls were used for dosing study. […] After acclimation for 1 week, one group of mice was fed with high fat diet containing 0.07% L-NAME (LabDiet 5G5V, St Louis, MO) for 15 weeks. The control group of mice were fed with normal chow (LabDiet 5053, St Louis, MO). […] Animals were housed in an animal research facility in accordance with the National Research Council of the National Academies guidelines for the care and use of laboratory animals.
A second group of mice was fed with standard chow for controls.
Transthoracic echocardiography was performed using a VisualSonics Vevo 2100 system equipped with MS400 transducer (Visual Sonics, Toronto, ON). LVEF and other indices of systolic function were obtained from short-axis M-mode scans at the midventricular level, as indicated by the presence of papillary muscles, in conscious, gently restrained mice. […]
Intraperitoneal glucose-tolerance tests were performed by injection of glucose (2 g/kg in saline) after 6 hour fasting (from 7 a.m. to 1 p.m.). Tail blood glucose levels (mg/dL) were measured by AimStrip Plus blood glucose strips used with the AimStrip Plus blood glucose monitoring system (Germaine Laboratories, San Antonio, TX) at 0 (baseline, before glucose dose), 15, 30, 45, 60 and 120 minutes after glucose administration.
The trachea was exposed by a midline incision from the base of the throat to just above the clavicle. […] The hemodynamic parameters were then recorded in close-chest mode. […]

As to `OC[C@H]1O[C@@H](c2ccc(Cl)c(Cc3ccc(O[C@H]4CCOC4)cc3)c2)[C@H](O)[C@@H](O)[C@@H]1O` [Empagliflozin, empagliflozin], the E/A result was “decreased” and the “E/e′ ratio” value was “decreased”. Besides, the end diastolic pressure entry (PV-Loop) is on record as “reduced end diastolic pressure”.
